In brackets after ≈: the same amount, converted by molar mass. One block for each compound: values may come before it.
Experiments:
Assay type in all cases: cell-based
Staph. aureus = experiment: MIC vs Staph. aureus (Table 2); settings: Staphylococcus aureus, strain not given
Source text: (§1) The compounds of the present invention were subjected to standard tests in order to determine the minimum inhibitory concentration in μg/ml needed to inhibit a range of bacterial microorganisms in-vitro.

St. faecalis CN478 = experiment: MIC against St. faecalis CN478 in vitro; settings: Enterococcus faecalis, read-out: Minimum Inhibitory Concentration (MIC)
Source text: as §1

St. agalactiae CN1143 = experiment: MIC against St. agalactiae CN1143 in vitro; settings: Streptococcus agalactiae, read-out: Minimum Inhibitory Concentration (MIC)
Source text: as §1

Staph. aureus CN491 = experiment: MIC against Staph. aureus CN491 in vitro; settings: Staphylococcus aureus, read-out: Minimum Inhibitory Concentration (MIC)
Source text: as §1

[1] = test system: Vibrio cholerae ATCC14035; experiment: MIC against Vibrio cholerae ATCC14035 in vitro; settings: ATCC14035, read-out: Minimum Inhibitory Concentration (MIC)
Source text: as §1

Esch. coli CN314 = experiment: MIC against Esch. coli CN314 in vitro; settings: Escherichia coli, read-out: Minimum Inhibitory Concentration (MIC)
Source text: as §1

Pr. mirabilis S2409 = experiment: MIC against Pr. mirabilis S2409 in vitro; settings: Proteus mirabilis, read-out: Minimum Inhibitory Concentration (MIC)
Source text: as §1

Meningococci = experiment: MIC against Meningococci in vitro; settings: Meningococci (average 5 strains); read-out: Minimum Inhibitory Concentration (MIC)
Source text: as §1

Gonococci = experiment: MIC against Gonococci in vitro; settings: Gonococci (average 17 strains); read-out: Minimum Inhibitory Concentration (MIC)
Source text: as §1

B. fragilis = experiment: MIC against B. fragilis in vitro; settings: Bacteroides fragilis; B. fragilis (average 3-10 strains); read-out: Minimum Inhibitory Concentration (MIC)
Source text: as §1

Compound: C=CCc1cc(Cc2cnc(N)nc2N)c2c(c1OC)NCCC2 [Compound 36, 5-(7-allyl-8-methoxy-5-(1,2,3,4-tetrahydro-quinolylmethyl))-2,4-diaminopyrimidine]
MIC (Staph. aureus): 0.05 µg/mL (≈ 0.154 µM)

Compound: C=CCc1cc(Cc2cnc(N)nc2N)c2cccnc2c1OCCOC [Compound 27, 2,4-Diamino-5-(7-allyl-8-(2-methoxyethoxy)-5-quinolylmethyl)pyrimidine]
MIC (Staph. aureus): 0.1 µg/mL (≈ 0.274 µM)

Compound: COc1cc(Cc2cnc(N)nc2N)c2c(c1OC)OC(C)=CC2 [Compound 19, 2,4-Diamino-5-(7,8-dimethoxy-2-methyl-4H--1-benzopyran-5-ylmethyl)pyrimidine]
MIC (Staph. aureus): 0.05 µg/mL (≈ 0.152 µM)

Compound: COc1cc(Cc2cnc(N)nc2N)c2c(c1OC)OC(C)(C)C=C2 [Compound 6, 2,4-Diamino-5-(7,8-dimethoxy-2,2-dimethyl-2 --H--1-benzopyran-5-ylmethyl) pyrimidine lactate]
MIC (Staph. aureus): 0.05 µg/mL

Compound: COc1cc(Cc2cnc(N)nc2N)c2c(c1OC)OC(C)C=C2 (stereo not drawn) [Compound 4, 2,4-Diamino-5-(7,8-dimethoxy-2-methyl-2 --H--1-benzopyran-5-ylmethyl) pyrimidine lactate]
MIC (St. faecalis CN478): 0.01 µg/mL
MIC (St. agalactiae CN1143): 0.05 µg/mL
MIC (Staph. aureus CN491): 0.05 µg/mL
MIC [1]: 0.05 µg/mL
MIC (Esch. coli CN314): 0.1 µg/mL
MIC (Pr. mirabilis S2409): 5 µg/mL
MIC (Meningococci): 2.8 µg/mL
MIC (Gonococci): 4.6 µg/mL
MIC (B. fragilis): 0.48 µg/mL

Compound: C=CCc1cc(Cc2cnc(N)nc2N)c2ccc(C)nc2c1O [Compound 13, 5-(7-Allyl-8-hydroxy-2-methyl-5-quinolylmethyl)-2,4-diaminopyrimidine]
MIC (Staph. aureus): 0.1 µg/mL (≈ 0.311 µM)

Compound: COc1cc(Cc2cnc(N)nc2N)c2cccnc2c1SC [Compound 31, 2,4-Diamino-5-(7-methoxy-8-methylthio-5-quinolylmethyl)pyrimidine]
MIC (St. faecalis CN478): 0.05 µg/mL (≈ 0.153 µM)
MIC (St. agalactiae CN1143): 0.5 µg/mL (≈ 1.53 µM)
MIC (Staph. aureus CN491): 0.05 µg/mL (≈ 0.153 µM)
MIC [1]: 0.05 µg/mL (≈ 0.153 µM)
MIC (Esch. coli CN314): 0.1 µg/mL (≈ 0.305 µM)
MIC (Pr. mirabilis S2409): 5 µg/mL (≈ 15.3 µM)
MIC (Meningococci): 14.4 µg/mL (≈ 44 µM)
MIC (Gonococci): 34.4 µg/mL (≈ 105 µM)
MIC (B. fragilis): 3.1 µg/mL (≈ 9.47 µM)

Compound: COc1cc(Cc2cnc(N)nc2N)c2c(c1OC)OC(C)CC2 (stereo not drawn) [Compound 22, 2,4-Diamino-5-(7,8-dimethoxy-3,4-dihydro-2-methyl-2 --H---1-benzopyran-5-ylmethyl)pyrimidine]
MIC (Staph. aureus): 0.1 µg/mL (≈ 0.303 µM)

Compound: COc1cc(Cc2cnc(N)nc2N)c2c(c1OC)OCCC2 [Compound 2, 2,4-Diamino-5-(3,4-dihydro-7,8-dimethoxy-2 --H--1-benzopyran-5-yl) pyrimidine]
MIC (Staph. aureus): 0.5 µg/mL (≈ 1.58 µM)

Compound: CC(=O)O.Cc1cc(Cc2cnc(N)nc2N)c2cccnc2c1-n1cccc1 [Compound 18, 2,4-Diamino-5-(8-(1-pyrrolyl)-7-methyl-5-quinolylmethyl)pyrimidine acetate]
MIC (Staph. aureus): 0.5 µg/mL

Compound: C=CCc1cc(Cc2cnc(N)nc2N)c2ccc(C)nc2c1OC [Compound 16, 5-(7-Allyl-8-methoxy-2-methyl-5-quinolylmethyl)-2,4-diaminopyrimidine]
MIC (Staph. aureus): 0.05 µg/mL (≈ 0.149 µM)

Compound: COc1cc(Cc2cnc(N)nc2N)c2c(c1OC)OC=CC2 [Compound 10, 2,4-Diamino-5-(7,8-dimethoxy-4 --H--1-benzopyran-5-ylmethyl)pyrimidine acetate]
MIC (Staph. aureus): 0.05 µg/mL

Compound: COc1cc(Cc2cnc(N)nc2N)c2ccncc2c1N.Cl.Cl [Compound 25, 2,4-Diamino-5-(8-amino-7-methoxy-5-isoquinolylmethyl)pyrimidine dihydrochloride]
MIC (St. faecalis CN478): 0.05 µg/mL
MIC (St. agalactiae CN1143): 0.05 µg/mL
MIC (Staph. aureus CN491): 0.05 µg/mL
MIC [1]: 0.05 µg/mL
MIC (Esch. coli CN314): 0.05 µg/mL
MIC (Pr. mirabilis S2409): 5 µg/mL
MIC (Meningococci): 3.1 µg/mL
MIC (Gonococci): 8.1 µg/mL
MIC (B. fragilis): 2.6 µg/mL

Compound: Cc1cc(Cc2cnc(N)nc2N)c2cccnc2c1N(C)C.Cl.Cl [Compound 9, 2,4-Diamino-5-(8-dimethylamino-7-methyl-5-quinolylmethyl)pyrimidine dihydrochloride]
MIC (St. faecalis CN478): 0.05 µg/mL
MIC (St. agalactiae CN1143): 0.5 µg/mL
MIC (Staph. aureus CN491): 0.5 µg/mL
MIC [1]: 0.5 µg/mL
MIC (Esch. coli CN314): 0.1 µg/mL
MIC (Pr. mirabilis S2409): 5 µg/mL
MIC (Meningococci): > 25 µg/mL
MIC (Gonococci): > 25 µg/mL
MIC (B. fragilis): 7.8 µg/mL

Compound: COc1cc(Cc2cnc(N)nc2N)c2ccc(=O)oc2c1OC [Compound 7, 2,4-Diamino-5-(7,8-dimethoxy-2-oxo-2 --H--1-benzopyran-5-ylmethyl)pyrim]
MIC (Staph. aureus): 0.5 µg/mL (≈ 1.52 µM)

Now from value to compound:

MIC (Staph. aureus): 0.1 µg/mL
Compound: Cl.Cl.Nc1ncc(Cc2cc(Cl)c(N)c3ncccc23)c(N)n1 [Compound 28, 2,4-Diamino-5-(8-amino-7-chloro-5-quinolylmethyl)pyrimidine dihydrochloride]

MIC (Staph. aureus): 0.05 µg/mL (≈ 0.155 µM)
Compound: CCCc1cc(Cc2cnc(N)nc2N)c2cccnc2c1OC [Compound 20, 2,4-Diamino-5-(8-methoxy-7-propyl-5-quinolylmethyl)-pyrimidine]

MIC (Staph. aureus): 5 µg/mL (≈ 17.8 µM)
Compound: Cc1cc(Cc2cnc(N)nc2N)c2ncccc2c1N [Compound 34, 2,4-Diamino-5-(5-amino-6-methyl-8-quinolylmethyl)pyrimidine]

MIC (Staph. aureus): 0.5 µg/mL (≈ 1.78 µM)
Compound: COc1ccc(Cc2cnc(N)nc2N)c2cccnc12 [Compound 3, 2,4-Diamino-5-(8-methoxy-5-quinolylmethyl)-pyrimidine]

MIC (Staph. aureus): 1 µg/mL (≈ 3.25 µM)
Compound: C=CCc1cc(Cc2cnc(N)nc2N)c2cccnc2c1O [Compound 11, 5-(7-Allyl-8-hydroxy-5-quinolylmethyl)-2,4-diaminopyrimidine]

MIC (Staph. aureus): 0.5 µg/mL (≈ 1.78 µM)
Compound: COc1cc(Cc2cnc(N)nc2N)c2cccnc2c1 [Compound 29, 2,4-Diamino-5-(7-methoxy-5-quinolylmethyl)pyridimine]

MIC (Staph. aureus): 0.05 µg/mL (≈ 0.161 µM)
Compound: CCOc1cc(Cc2cnc(N)nc2N)c2cccnc2c1N [Compound 26, 2,4-Diamino-5-(8-amino-7-ethoxy-5-quinolylmethyl)pyrimidine]

MIC (Staph. aureus): 0.5 µg/mL
Compound: Cc1cc(Cc2cnc(N)nc2N)c2cccnc2c1.Cl.Cl [Compound 17, 2,4-Diamino-5-(7-methyl-5-quinolylmethyl)-pyrimidine dihydrochloride]

MIC (Staph. aureus): 0.5 µg/mL (≈ 1.69 µM)
Compound: COc1cc(Cc2cnc(N)nc2N)c2ncccc2c1N [Compound 35, 2,4-Diamino-5-(5-amino-6-methoxy-8-quinolylmethyl)pyrimidine]

MIC (Staph. aureus): 0.1 µg/mL (≈ 0.321 µM)
Compound: COc1cc(Cc2cnc(N)nc2N)c2cccnc2c1OC [Compound 24, 2,4-Diamino-5-(7,8-dimethoxy-5-quinolylmethyl)pyrimidine]

MIC (Staph. aureus): 0.5 µg/mL
Compound: Cc1cc(Cc2cnc(N)nc2N)c2cccnc2c1N.Cl [Compound 5, 2,4-Diamino-5-(8-amino-7-methyl-5-quinolylmethyl)-pyrimidine hydrochloride]

MIC (Staph. aureus): 0.1 µg/mL
Compound: CSc1cc(Cc2cnc(N)nc2N)c2cccnc2c1N.Cl.Cl [Compound 30, 2,4-Diamino-5-(8-amino-7-methylthio-5-quinolylmethyl)pyrimidine dihydrochloride]

MIC (Staph. aureus): 0.5 µg/mL
Compound: COc1cc(Cc2cnc(N)nc2N)c2cccnc2c1N(C)C.Cl.Cl [Compound 15, 2,4-Diamino-5-(8-dimethylamino-7-methoxy-5-quinolylmethyl)pyrimidine dihydrochloride]

MIC (Staph. aureus): 0.05 µg/mL (≈ 0.156 µM)
Compound: CC=Cc1cc(Cc2cnc(N)nc2N)c2cccnc2c1OC [Compound 14, 2,4-Diamino-5-(8-methoxy-7-(1-propenyl)-5-quinolylmethyl)pyrimidine]

MIC (Staph. aureus): 5 µg/mL (≈ 16.8 µM)
Compound: COc1cc(Cc2cnc(N)nc2N)c2cccnc2c1O [Compound 23, 2,4-Diamino-5-(8-hydroxy-7-methoxy-5-quinolylmethyl)pyrimidine]

MIC (Staph. aureus): 0.05 µg/mL (≈ 0.156 µM)
Compound: C=CCc1cc(Cc2cnc(N)nc2N)c2cccnc2c1OC [Compound 12, 5-(7-Allyl-8-methoxy-5-quinolylmethyl)-2,4-diaminopyrimidine]

Reference: patent US4587342A, “2,4-diamino-(substituted-benzopyran(quinolyl,isoquinoly)methyl)pyrimidine s useful as antibacterials” (priority 1980, dated 1986)
